Measurements published in ChEMBL document CHEMBL1201862, “PubChem BioAssay data set” (2004).
Calls of active or inactive are those of the source.

What was measured:
[1] = target: Steroidogenic factor 1 (Homo sapiens, UniProt Q13285); test: Counterscreen for inverse agonists of the liver receptor homolog-1 (LRH-1; NR5A2): Luminescence-based cell-based high throughput dose response assay to identify inverse agonists of the Steroidogenic Factor 1 Nuclear Receptor (SF1; NR5A1).; type: functional
[2] = target: Nuclear receptor subfamily 5 group A member 2 (Homo sapiens, UniProt O00482); type: functional, cell-based;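 note: HEK293T cells transfected with LRH-1 and a StAR promoter luciferase reporter; potency for inhibitors that lower LRH-1 driven reporter light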
Nuclear receptor subfamily 5 group A member 2, sequence (O00482 whole entry): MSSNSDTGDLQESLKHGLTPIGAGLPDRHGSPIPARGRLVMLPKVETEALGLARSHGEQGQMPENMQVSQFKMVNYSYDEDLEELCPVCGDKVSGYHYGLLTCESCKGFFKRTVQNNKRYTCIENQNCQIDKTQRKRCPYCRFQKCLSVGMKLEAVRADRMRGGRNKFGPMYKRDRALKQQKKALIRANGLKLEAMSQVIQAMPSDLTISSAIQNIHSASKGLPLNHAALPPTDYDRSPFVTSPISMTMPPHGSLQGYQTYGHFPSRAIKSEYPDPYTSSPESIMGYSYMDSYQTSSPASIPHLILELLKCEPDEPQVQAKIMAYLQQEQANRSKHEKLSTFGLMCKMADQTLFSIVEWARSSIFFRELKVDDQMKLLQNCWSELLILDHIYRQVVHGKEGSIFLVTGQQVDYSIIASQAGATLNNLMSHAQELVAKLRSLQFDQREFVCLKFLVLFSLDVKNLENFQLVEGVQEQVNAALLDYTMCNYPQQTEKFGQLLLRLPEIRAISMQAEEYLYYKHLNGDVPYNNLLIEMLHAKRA

[3] = StAR promoter reporter inhibition counter-screen, dose response, counter-screen for LRH-1 inverse agonist project, cell-based, luminescence, luciferase reporter (AID 651969); type: functional
[4] = target: Long-chain-fatty-acid--AMP ligase FadD28 (Mycobacterium tuberculosis, UniProt P9WQ59); test: Fluorescence polarization aasay to screen for inhibitors that compete for the binding of FadD28 to a bisubstrate Measured in Biochemical System Using Plate Reader - 2147-01_Inhibitor_Dose_CherryPick_Activity.; type: functional, Mycobacterium tuberculosis H37Rv
Long-chain-fatty-acid--AMP ligase FadD28, sequence (P9WQ59 whole entry): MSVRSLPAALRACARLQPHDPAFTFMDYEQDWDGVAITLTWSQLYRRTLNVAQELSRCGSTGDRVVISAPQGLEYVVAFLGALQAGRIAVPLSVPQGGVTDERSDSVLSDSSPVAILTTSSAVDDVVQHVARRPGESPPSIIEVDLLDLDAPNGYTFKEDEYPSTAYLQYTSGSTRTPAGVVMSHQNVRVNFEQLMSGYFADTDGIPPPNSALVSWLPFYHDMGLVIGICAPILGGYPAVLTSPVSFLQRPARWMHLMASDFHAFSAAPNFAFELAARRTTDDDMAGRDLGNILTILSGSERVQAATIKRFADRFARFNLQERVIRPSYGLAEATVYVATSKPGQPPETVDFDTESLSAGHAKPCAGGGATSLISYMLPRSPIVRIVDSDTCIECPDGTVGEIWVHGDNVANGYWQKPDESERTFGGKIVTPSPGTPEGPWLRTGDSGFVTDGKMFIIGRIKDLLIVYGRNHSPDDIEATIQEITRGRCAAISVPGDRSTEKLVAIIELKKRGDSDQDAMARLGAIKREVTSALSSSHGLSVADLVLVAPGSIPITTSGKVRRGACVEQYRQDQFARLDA

[5] = target: Dual specificity tyrosine-phosphorylation-regulated kinase 1A (Rattus norvegicus, UniProt Q63470); type: biochemical, Homo sapiens
[6] = target: Protein Wnt-3a (Mus musculus, UniProt P27467); test: SAR analysis of small molecule antagonists of Gli-SUFU in a Wnt3a luminescent reporter assay.; type: functional
Protein Wnt-3a, sequence (P27467 whole entry): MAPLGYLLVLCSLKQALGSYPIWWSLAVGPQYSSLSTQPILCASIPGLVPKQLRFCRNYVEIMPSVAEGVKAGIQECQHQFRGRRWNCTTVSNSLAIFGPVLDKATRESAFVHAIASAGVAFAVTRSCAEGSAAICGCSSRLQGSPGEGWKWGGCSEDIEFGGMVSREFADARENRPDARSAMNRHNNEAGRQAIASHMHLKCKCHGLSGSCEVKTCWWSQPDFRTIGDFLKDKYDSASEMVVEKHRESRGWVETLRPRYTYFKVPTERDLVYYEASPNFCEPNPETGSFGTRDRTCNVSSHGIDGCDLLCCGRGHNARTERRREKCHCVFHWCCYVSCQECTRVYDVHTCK

[7] = target: T1, DNA repair protein RAD52 homolog (Homo sapiens, UniProt P43351); type: functional, biochemical
T1 sequence (P43351 whole entry): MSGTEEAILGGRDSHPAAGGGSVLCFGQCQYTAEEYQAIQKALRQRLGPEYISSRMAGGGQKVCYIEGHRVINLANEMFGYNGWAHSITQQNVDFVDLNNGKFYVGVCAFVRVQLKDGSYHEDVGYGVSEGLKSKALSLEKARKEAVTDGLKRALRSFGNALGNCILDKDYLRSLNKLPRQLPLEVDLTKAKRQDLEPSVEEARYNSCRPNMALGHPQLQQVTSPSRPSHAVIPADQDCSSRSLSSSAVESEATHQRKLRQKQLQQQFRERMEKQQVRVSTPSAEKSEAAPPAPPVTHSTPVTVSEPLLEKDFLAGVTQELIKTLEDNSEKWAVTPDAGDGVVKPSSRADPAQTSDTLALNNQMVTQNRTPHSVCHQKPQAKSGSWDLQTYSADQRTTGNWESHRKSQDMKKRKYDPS

[8] = target: Cytochrome P450 2C19 (Homo sapiens, UniProt P33261); test: Cytochrome panel assay with activity outcomes. Panel member name: p450-cyp2c19 Compounds with AC50 equal or less than 10 uM are considered active; type: functional; conditions: read-out: AC50
Cytochrome P450 2C19, sequence (P33261 whole entry): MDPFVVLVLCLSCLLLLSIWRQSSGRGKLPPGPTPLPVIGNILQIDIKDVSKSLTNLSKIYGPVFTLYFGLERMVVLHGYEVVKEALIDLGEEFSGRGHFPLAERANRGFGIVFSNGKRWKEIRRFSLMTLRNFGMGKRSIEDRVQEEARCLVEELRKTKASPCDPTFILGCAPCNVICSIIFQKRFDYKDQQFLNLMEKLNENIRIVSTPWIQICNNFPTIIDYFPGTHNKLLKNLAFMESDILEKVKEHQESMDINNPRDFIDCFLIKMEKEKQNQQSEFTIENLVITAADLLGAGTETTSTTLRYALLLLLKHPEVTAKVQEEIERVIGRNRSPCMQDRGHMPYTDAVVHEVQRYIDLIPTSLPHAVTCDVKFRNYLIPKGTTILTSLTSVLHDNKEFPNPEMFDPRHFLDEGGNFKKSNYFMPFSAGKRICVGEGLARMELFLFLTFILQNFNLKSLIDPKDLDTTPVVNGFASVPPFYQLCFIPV

[9] = target: T2, Rac GTPase-activating protein 1 (Homo sapiens, UniProt Q9H0H5); test: MgcRacGAP GTPase-activating activity inhibitors, confirmation, biochemical, ADP Hunter fluorescence, primary and confirmatory (AID 624330); type: functional
T2 sequence (Q9H0H5 whole entry): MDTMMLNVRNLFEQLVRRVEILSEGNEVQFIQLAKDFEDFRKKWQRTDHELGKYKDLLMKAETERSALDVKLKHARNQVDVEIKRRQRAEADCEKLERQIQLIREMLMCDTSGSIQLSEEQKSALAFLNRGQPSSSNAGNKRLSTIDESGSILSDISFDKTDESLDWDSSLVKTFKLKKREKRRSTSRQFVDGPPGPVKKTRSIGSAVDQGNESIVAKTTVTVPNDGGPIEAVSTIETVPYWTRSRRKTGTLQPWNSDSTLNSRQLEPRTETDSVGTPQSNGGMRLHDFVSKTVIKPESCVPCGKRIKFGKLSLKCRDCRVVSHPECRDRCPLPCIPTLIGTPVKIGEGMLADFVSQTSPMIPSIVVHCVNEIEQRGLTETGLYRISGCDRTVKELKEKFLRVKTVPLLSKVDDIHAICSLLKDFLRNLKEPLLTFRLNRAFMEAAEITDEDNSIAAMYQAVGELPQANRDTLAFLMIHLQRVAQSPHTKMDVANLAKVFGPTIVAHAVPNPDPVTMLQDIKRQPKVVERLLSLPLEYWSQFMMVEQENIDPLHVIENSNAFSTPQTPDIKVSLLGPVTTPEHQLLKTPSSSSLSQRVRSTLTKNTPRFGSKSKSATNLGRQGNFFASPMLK

[10] = HeLa cell cytotoxicity, dose response, cytotoxicity control for MgcRacGAP inhibitor project (AID 624300); type: functional
[11] = Counterscreen for activators of the function of SWI/SNF related, matrix associated, actin dependent regulator of chromatin, subfamily a, member 2 (SMARCA2, BRM): Luminescence-based cell-based high throughput dose response assay to identify non-selective compounds using the VP16 reporter assay.; type: functional
[12] = target: SWI/SNF-related matrix-associated actin-dependent regulator of chromatin subfamily A member 2 (Homo sapiens, UniProt P51531); test: Luminescence-based cell-based high throughput dose response assay to identify activators of the function of SWI/SNF related, matrix associated, actin dependent regulator of chromatin, subfamily a, member 2 (SMARCA2, BRM).; type: functional
SWI/SNF-related matrix-associated actin-dependent regulator of chromatin subfamily A member 2, sequence (P51531 whole entry): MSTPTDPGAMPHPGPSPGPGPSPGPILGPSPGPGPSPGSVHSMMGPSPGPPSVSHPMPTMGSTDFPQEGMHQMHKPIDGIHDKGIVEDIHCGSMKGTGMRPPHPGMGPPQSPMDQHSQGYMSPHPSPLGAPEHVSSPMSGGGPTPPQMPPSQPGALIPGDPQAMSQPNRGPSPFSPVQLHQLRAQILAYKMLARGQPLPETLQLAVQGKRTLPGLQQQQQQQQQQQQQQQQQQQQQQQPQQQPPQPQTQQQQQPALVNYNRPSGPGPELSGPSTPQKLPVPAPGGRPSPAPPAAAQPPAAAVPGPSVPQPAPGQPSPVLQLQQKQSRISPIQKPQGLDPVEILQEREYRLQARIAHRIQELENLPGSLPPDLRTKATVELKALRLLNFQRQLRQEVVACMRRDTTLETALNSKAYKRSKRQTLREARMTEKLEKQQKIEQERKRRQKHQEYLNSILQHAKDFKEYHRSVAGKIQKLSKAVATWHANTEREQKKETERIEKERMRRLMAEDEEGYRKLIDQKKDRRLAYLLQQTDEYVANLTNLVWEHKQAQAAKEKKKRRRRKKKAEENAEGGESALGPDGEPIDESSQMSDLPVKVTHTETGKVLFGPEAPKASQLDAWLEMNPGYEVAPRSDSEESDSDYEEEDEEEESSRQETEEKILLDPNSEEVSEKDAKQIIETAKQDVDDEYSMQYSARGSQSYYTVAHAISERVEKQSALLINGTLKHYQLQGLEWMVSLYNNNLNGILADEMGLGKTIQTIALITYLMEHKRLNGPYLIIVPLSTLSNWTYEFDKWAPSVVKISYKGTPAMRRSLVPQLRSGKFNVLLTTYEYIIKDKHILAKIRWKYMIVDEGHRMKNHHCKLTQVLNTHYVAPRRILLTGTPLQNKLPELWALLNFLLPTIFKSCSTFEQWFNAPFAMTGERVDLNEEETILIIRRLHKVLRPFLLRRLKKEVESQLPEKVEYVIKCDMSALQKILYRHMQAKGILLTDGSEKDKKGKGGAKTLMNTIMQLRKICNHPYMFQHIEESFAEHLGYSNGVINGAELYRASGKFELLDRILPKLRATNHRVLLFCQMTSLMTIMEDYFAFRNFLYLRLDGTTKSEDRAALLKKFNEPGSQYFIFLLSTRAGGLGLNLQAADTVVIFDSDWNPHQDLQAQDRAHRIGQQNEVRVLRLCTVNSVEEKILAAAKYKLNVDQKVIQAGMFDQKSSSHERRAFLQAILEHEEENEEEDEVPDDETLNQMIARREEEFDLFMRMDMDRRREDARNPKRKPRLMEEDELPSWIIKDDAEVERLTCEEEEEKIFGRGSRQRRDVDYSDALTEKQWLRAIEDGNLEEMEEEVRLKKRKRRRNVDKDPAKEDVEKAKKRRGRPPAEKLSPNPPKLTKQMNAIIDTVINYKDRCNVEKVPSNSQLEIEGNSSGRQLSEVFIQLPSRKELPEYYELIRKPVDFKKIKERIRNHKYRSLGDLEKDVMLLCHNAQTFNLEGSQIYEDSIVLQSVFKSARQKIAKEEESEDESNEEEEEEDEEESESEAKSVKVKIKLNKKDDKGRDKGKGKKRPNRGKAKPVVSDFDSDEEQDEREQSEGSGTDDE

[13] = target: Kallikrein-7 (Homo sapiens, UniProt P49862); test: Fluorescence Intensity-based biochemical primary high throughput dose response assay to identify activators of kallikrein-7 (K7) zymogen.
Kallikrein-7, sequence (P49862 whole entry): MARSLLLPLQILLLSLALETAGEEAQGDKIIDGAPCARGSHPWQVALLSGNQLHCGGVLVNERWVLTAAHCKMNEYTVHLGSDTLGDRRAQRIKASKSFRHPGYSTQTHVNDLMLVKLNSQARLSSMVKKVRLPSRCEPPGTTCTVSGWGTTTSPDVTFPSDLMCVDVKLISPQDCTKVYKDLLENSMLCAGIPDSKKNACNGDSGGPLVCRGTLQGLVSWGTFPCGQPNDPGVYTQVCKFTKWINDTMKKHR

[14] = target: Glucose-6-phosphate 1-dehydrogenase (Homo sapiens, UniProt P11413); test: human G6PD enzyme inhibitors, dose response, selectivity assay for P. falciparum G6PD inhibitor project, biochemical, fluorescence (AID 504792); type: functional
Glucose-6-phosphate 1-dehydrogenase, sequence (P11413 whole entry): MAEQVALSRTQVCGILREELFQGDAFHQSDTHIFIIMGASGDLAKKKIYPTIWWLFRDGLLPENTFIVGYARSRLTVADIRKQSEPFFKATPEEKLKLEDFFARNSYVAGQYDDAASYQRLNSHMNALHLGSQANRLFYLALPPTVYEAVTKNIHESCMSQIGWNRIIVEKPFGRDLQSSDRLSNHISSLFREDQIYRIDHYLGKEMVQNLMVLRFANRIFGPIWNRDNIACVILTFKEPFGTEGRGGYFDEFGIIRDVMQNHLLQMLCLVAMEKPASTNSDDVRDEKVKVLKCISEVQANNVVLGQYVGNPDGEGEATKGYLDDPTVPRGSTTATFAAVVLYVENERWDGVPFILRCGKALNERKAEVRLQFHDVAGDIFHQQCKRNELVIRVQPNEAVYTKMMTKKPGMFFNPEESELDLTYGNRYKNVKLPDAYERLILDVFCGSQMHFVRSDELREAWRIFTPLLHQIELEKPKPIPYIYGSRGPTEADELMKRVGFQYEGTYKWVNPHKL

Steroidogenic factor 1, sequence (Q13285 whole entry): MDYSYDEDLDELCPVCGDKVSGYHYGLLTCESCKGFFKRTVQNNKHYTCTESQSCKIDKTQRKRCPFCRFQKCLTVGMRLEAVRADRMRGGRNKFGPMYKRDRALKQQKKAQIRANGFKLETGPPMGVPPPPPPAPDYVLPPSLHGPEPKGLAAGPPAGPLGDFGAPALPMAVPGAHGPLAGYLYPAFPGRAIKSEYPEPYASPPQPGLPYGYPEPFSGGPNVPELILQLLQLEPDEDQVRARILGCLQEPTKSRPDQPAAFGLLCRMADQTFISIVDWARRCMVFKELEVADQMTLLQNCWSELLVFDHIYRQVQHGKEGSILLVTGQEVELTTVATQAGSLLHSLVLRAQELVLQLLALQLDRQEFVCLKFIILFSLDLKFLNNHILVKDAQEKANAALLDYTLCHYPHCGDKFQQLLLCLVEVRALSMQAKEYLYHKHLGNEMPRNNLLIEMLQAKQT

Compound | IC50 [1] | IC50 [2] | IC50 [3] | AC50 [5] | IC50 [6] | other results
Cc1ccc(-c2nn3c(C)nnc3s2)cc1NC(=O)c1cccs1 | 0.684 µM (active) | 1.13 µM (active) | 35.9 µM (inactive) |  |  | 
COc1cccc(/C=N/n2c(S)nnc2C2CCCCC2)c1O |  |  |  | 6.14 µM (active) |  | AC50 [4]: 16.8 µM (active)
Cc1ccc(NC(=O)CN2C(=O)NC(C)(CC(C)C)C2=O)c(Br)c1 (centres undefined) | 8.09 µM (active) | 11.7 µM (inactive) | 35.9 µM (inactive) |  |  | 
COc1cc(OC)cc(C(=O)Nc2cc(N3CCCC3)ncn2)c1 |  |  |  |  | > 21.8 µM (inactive) | 
CCN(CC)c1cc(NC(=O)c2ccc(Br)o2)ncn1 |  |  |  |  | > 21.8 µM (inactive) | 
COc1ccc2nc3cc(Cl)ccc3c(Nc3ccc(O)c(CN4CCN(C)CC4)c3)c2c1 |  |  |  | 7.7 µM (active) |  | AC50 [7]: < 0.15 µM (active); AC50 [8]: 2.51 µM (inconclusive); IC50 [9]: 45.4 µM (active); CC50 [10]: 25.6 µM (active); EC50 [11]: > 91.1 µM (inactive); EC50 [12]: > 91.1 µM (inactive); EC50 [13]: > 69.5 µM (inactive); IC50 [14]: > 80 µM (inactive)
